According to PubChem BioAssay (NCI):
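These data come from cells grown in 96-well plates and exposed to compound for 48 hours at five concentrations. GI50 = concentration required for 50% inhibition of growth. TGI is the concentration that stops growth completely.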

Assays:
Experiment in all cases: growth of human tumour cells (NCI), 48 h
A549 NSCLC = system: A549 NSCLC
CAKI-1 renal = system: CAKI-1 renal
EKVX NSCLC = system: EKVX NSCLC
HCT-15 colon = system: HCT-15 colon
MALME-3M melanoma = system: MALME-3M melanoma
NCI-H23 lung = system: NCI-H23 lung
RPMI-8226 leukemia = system: RPMI-8226 leukemia
SNB-19 CNS = system: SNB-19 CNS
SW-620 colon = system: SW-620 colon
U251 CNS = system: U251 CNS

Row | Compound | TGI (A549 NSCLC) [µM] | TGI (CAKI-1 renal) [µM] | TGI (EKVX NSCLC) [µM] | TGI (HCT-15 colon) [µM] | TGI (MALME-3M melanoma) [µM] | TGI (NCI-H23 lung) [µM] | TGI (RPMI-8226 leukemia) [µM] | TGI (SNB-19 CNS) [µM] | TGI (SW-620 colon) [µM] | TGI (U251 CNS) [µM] | GI50 (CAKI-1 renal) [µM] | GI50 (HCT-15 colon) [µM] | GI50 (NCI-H23 lung) [µM] | GI50 (SNB-19 CNS) [µM] | GI50 (SW-620 colon) [µM] | GI50 (U251 CNS) [µM] | GI50 (A549 NSCLC) [µM] | GI50 (EKVX NSCLC) [µM] | GI50 (RPMI-8226 leukemia) [µM] | GI50 (MALME-3M melanoma) [µM]
1 | CC(C)(C)COS(=O)OCC(C)(C)C | > 100 | > 100 | > 100 | > 100 | > 100 | > 100 | > 100 | > 100 | > 100 | > 100 |  |  |  |  |  |  |  |  |  | 
2 | COc1cc2cc[n+](C)c(Cc3ccc(Oc4cc(Cc5c6cc(OC)c(OC)cc6cc[n+]5C)ccc4OC)cc3)c2cc1OC | > 100 | > 100 | > 100 | > 100 | > 100 | > 100 | > 100 | > 100 | > 100 | > 100 |  |  |  |  |  |  |  |  |  | 
3 | CC(C)C(=O)CC(c1ccc(Br)cc1)N1N=C(C(C)C)CC1c1ccc(Br)cc1 (stereo not given) | > 100 | > 100 | > 100 | > 100 | > 100 | > 100 |  | > 100 | > 100 | > 100 |  |  |  |  |  |  |  |  |  | 
4 | CC(CCCCNC(=O)OC(C)(C)C)NC(=O)NC(C)CCCCNC(=O)OC(C)(C)C (stereo not given) | > 100 | > 100 | > 100 | > 100 | > 100 | > 100 |  | > 100 | > 100 | > 100 |  |  |  |  |  |  |  |  |  | 
5 | C[C@]12O[C@@]3(C)O[C@@]3(C)[C@]3(C)O[C@]3(C)[C@@]1(C)O2 | > 100 | > 100 | > 100 | > 100 | > 100 | > 100 |  | > 100 |  | > 100 |  |  |  |  |  |  |  |  |  | 
6 | Cc1c2ccccc2cc2cccc[n+]12 | > 100 |  | 92.5 | > 100 | 27.9 | 65.5 | > 100 | > 100 | > 100 |  |  |  |  |  |  |  |  |  |  | 
7 | Cc1ccc(S(=O)(=O)Nc2cc(=O)[nH]c3c2CCC3)cc1 | > 100 | > 100 | > 100 | > 100 | > 100 | > 100 | > 100 | > 100 | > 100 | > 100 |  |  |  |  |  |  |  |  |  | 
8 | C/C=C/C(O)P(=O)(OC)OC (stereo not given) | 1.07 | 1.85 | 1.51 | 1.06 | 1.17 | 1.2 | 0.514 | 1.53 | 0.982 | 0.872 |  |  |  |  |  |  |  |  |  | 
9 | c1ccc(C[N+]23C(CC[C@H]2c2ccccc2)CC[C@H]3c2ccccc2)cc1 (stereo not given in full) | > 100 | > 100 | > 100 |  | > 100 |  | 26.4 | > 100 | > 100 | > 100 |  |  |  |  |  |  |  |  |  | 
10 | Clc1cccc(/C=c2\nc(-c3ccccc3)n3c2nc2ccccc23)c1 | > 100 | > 100 | > 100 | > 100 | > 100 | > 100 | > 100 | > 100 | > 100 | > 100 |  |  |  |  |  |  |  |  |  | 
11 | Nc1csc(-c2scc3c2OCCO3)c1N | > 100 | > 100 | 72.3 | 35.1 | 36 | 35.6 | > 100 | > 100 | 87.9 | 29.3 |  |  |  |  |  |  |  |  |  | 
12 | CCCC(=O)Nc1cc(/C=C/C(=O)N2CC(CCl)c3c2cc(OC(C)=O)c2[nH]cc(C)c32)n(C)c1 (stereo not given) |  |  | 0.00665 | > 0.134 | 9.55e-05 | 8.72e-05 | 0.00762 | 0.0436 | > 0.25 | 0.105 |  |  |  |  |  |  |  |  |  | 
13 | C=CCc1cccc(/C(O)=C/C(=O)/C=C/c2ccccc2Cl)c1O | > 100 | > 100 | > 100 | > 100 |  | 21.8 | 36.5 | > 84 | 90.1 | > 63.1 |  |  |  |  |  |  |  |  |  | 
14 | CN(CCCN1CCCC1)CCCN(C)C(=O)Cc1ccc(Cl)c(Cl)c1 | > 53.6 | 49.1 | 62.5 | > 87 | 34.6 | 54.8 | 22.4 | > 72.6 | 50.7 | 29.7 |  |  |  |  |  |  |  |  |  | 
15 | CC1(C)CC(C(=O)OCCCCCCCCCCC[P+](c2ccccc2)(c2ccccc2)c2ccccc2)C(C)(C)N1O (stereo not given) |  | 2.32 |  | 2.23 |  | 1.68 |  | 1.24 | 1.45 | 1.11 | 0.781 | 0.87 | 0.271 | 0.263 | 0.344 | 0.0596 |  |  |  | 
16 | NC(N)=N/N=C/c1c(-c2cccs2)nc2n1CCS2 | > 100 |  | 85.7 | 60.1 |  |  | 39.9 | 57.8 | 41.7 | 30.1 |  | 20.6 |  | 22 | 17.9 | 16.6 | > 100 | 27.7 | 18.6 | 
17 | CCOC(=O)c1cccc(N=Nc2ncc(/C=C/C(=O)OC)[nH]2)c1 | > 100 | > 100 | > 100 | > 100 | 70.3 | > 100 | 40.5 | > 100 | > 100 | > 100 |  |  |  |  |  |  |  |  |  | 
18 | CCOC(=O)/C=C/C1=C(Br)[C@@]2(C)CC[C@@H]3c4ccc(O)cc4CC[C@H]3[C@@H]2C1 | 30.5 | 30 | 30.7 | 24.4 | 24.3 | 26.6 | 6.6 | 30.2 | 37.3 | 30.3 |  |  |  |  |  |  |  |  |  | 
19 | CC12OC(C(=O)C13CCC3)C1C(=O)c3c(O)ccc(O)c3C(=O)C12 (stereo not given) | 22.3 | 2.62 | 22.7 | 3.4 | 3.88 | 2.15 | 3.11 | > 50.5 | 3.88 | > 22.8 | 0.817 | 0.952 | 0.577 | 14.7 | 1.39 | 2.47 | 5.79 | 9.34 | 0.336 | 1.8
20 | COc1cc(/C=C2\CC3C4CC[C@H]5C[C@@H](O)CC[C@]5(C)C4CC[C@]3(C)\C2=N\O)cc(OC)c1OC (stereo not given in full) | > 100 | 29.3 | > 100 | > 100 | 42.8 | > 100 | 23.4 | > 100 | > 100 | 30.9 |  |  |  |  |  |  |  |  |  | 
